The values below are quoted from earlier work in patent US7341836B2, “Modified cyclic nucleotide gated ion channels” (The Regents of the University of Colorado, priority 2001, dated 2008).

The target of one data set is T1, PDE X (Mus musculus, UniProt Q8CA95).
T1 construct: host or cells: heterologously expressed
T1 sequence (Q8CA95 1-790): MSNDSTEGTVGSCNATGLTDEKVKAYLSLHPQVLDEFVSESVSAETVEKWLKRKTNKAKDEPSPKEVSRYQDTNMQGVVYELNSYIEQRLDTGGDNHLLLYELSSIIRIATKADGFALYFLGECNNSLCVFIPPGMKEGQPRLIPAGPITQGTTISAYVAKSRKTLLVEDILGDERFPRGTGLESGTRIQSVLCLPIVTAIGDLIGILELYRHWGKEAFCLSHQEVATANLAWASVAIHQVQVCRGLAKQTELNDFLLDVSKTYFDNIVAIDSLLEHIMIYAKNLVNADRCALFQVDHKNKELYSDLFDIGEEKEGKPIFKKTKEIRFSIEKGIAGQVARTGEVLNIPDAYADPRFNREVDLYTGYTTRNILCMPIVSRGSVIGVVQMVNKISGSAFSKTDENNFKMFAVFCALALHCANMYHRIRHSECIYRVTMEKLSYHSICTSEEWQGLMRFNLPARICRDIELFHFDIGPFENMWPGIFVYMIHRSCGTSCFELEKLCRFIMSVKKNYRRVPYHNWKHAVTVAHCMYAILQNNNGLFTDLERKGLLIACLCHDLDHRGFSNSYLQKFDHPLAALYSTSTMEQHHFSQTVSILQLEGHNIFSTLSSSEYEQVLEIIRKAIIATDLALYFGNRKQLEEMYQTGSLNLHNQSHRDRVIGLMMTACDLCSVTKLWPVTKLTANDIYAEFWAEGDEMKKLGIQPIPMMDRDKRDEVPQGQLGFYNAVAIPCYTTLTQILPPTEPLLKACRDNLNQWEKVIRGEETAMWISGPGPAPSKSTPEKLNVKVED
Particulars: cited from earlier work.

The next data set deals with T2, PDE IX (UniProt O70628).
T2 sequence (O70628 1-534): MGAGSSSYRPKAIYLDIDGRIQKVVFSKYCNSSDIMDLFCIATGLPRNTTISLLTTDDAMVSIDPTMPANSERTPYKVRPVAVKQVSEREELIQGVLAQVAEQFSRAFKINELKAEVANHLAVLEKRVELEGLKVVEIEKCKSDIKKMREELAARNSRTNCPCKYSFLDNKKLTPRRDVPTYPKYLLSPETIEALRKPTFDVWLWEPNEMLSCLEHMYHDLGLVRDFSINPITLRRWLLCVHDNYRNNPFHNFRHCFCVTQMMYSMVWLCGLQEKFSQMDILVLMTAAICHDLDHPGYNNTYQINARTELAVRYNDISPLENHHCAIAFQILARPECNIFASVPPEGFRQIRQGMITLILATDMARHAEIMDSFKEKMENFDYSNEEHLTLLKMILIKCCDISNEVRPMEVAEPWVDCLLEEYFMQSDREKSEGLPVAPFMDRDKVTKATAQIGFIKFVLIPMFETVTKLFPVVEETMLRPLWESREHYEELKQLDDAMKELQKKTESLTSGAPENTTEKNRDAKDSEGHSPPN
Particulars: read-out: IC50, PDE IX; cited from earlier work.

A further data set has as its system PDE I. Particulars: cited from earlier work.

A value given as a limit tells only on which side of the number the result lay.

By IC50 is commonly meant the concentration that inhibits the measured activity by half. Regarding `CCCCCC[C@@H]([C@@H](C)O)n1cnc2c(N)ncnc21` (racemic) [EHNA], the IC50 at PDE X is 69 µM; on PDE IX, greater than 100 µM.

On to `CC(C)Cn1c(=O)n(C)c(=O)c2[nH]cnc21` [IBMX, 3-isobutyl-1-methylxanthine], for which the half-maximal inhibitory concentration (IC50) in the data set with PDE I was 2 to 3 µM; on PDE X, 2.6 µM; on PDE IX, greater than 200 µM.

With `CCCCOc1cc(CC2CNC(=O)N2)ccc1OC` (stereo not drawn) [RO-20-1724, 4-(3-butoxy-4-methoxybenzyl)-2-imidazolidinone], in the data set on PDE I, the concentration for half-maximal inhibition (IC50) was 200 µM.

In the case of `COc1ccc(C2CNC(=O)C2)cc1OC1CCCC1` (stereo not drawn) [Rolipram], the IC50 in the data set on PDE I is greater than 150 µM; at PDE X, 47 µM; at PDE IX, greater than 200 µM.
